In ChEMBL document CHEMBL3045273, “Synthesis, characterization, and pharmacological evaluation of 1-[2-(6-nitro-4-oxo-2-phenyl-4H-quinazolin-3-yl)-ethyl]-3-phenyl ureas” (2013):
Values after ≈ are worked out from the molar mass of the structure shown.

Legend:
Escherichia coli [1] = assay: Antibacterial activity against Escherichia coli ATCC 25922 assessed as growth inhibition at 40 ug/ml after 24 hr by Kirby-Bauer disk diffusion method; assay type: functional; settings: ATCC 25922, 24 h, read-out: DIZ
Candida albicans [2] = assay: Antifungal activity against Candida albicans ATCC 66027 assessed as growth inhibition at 300 ug/ml after 24 hr by Kirby-Bauer disk diffusion method; assay type: functional; settings: ATCC 66027, 24 h, read-out: DIZ
Bacillus subtilis [3] = assay: Antibacterial activity against Bacillus subtilis ATCC 11774 assessed as growth inhibition at 300 ug/ml after 24 hr by Kirby-Bauer disk diffusion method; assay type: functional; settings: ATCC 11774, 24 h, read-out: DIZ
Pseudomonas aeruginosa [4] = assay: Antibacterial activity against Pseudomonas aeruginosa ATCC 27853 assessed as growth inhibition at 300 ug/ml after 24 hr by Kirby-Bauer disk diffusion method; assay type: functional; settings: ATCC 27853, 24 h, read-out: DIZ
Staphylococcus aureus [5] = assay: Antibacterial activity against Staphylococcus aureus ATCC 25923 assessed as growth inhibition at 300 ug/ml after 24 hr by Kirby-Bauer disk diffusion method; assay type: functional; settings: ATCC 25923, 24 h, read-out: DIZ
Candida albicans [6] = assay: Antifungal activity against Candida albicans ATCC 66027 assessed as growth inhibition at 100 ug/ml after 24 hr by Kirby-Bauer disk diffusion method; assay type: functional; settings: ATCC 66027, 24 h, read-out: DIZ
Bacillus subtilis [7] = assay: Antibacterial activity against Bacillus subtilis ATCC 11774 assessed as growth inhibition at 100 ug/ml after 24 hr by Kirby-Bauer disk diffusion method; assay type: functional; settings: ATCC 11774, 24 h, read-out: DIZ
Staphylococcus aureus [8] = assay: Antibacterial activity against Staphylococcus aureus ATCC 25923 assessed as growth inhibition at 100 ug/ml after 24 hr by Kirby-Bauer disk diffusion method; assay type: functional; settings: ATCC 25923, 24 h, read-out: DIZ
Pseudomonas aeruginosa [9] = assay: Antibacterial activity against Pseudomonas aeruginosa ATCC 27853 assessed as growth inhibition at 100 ug/ml after 24 hr by Kirby-Bauer disk diffusion method; assay type: functional; settings: ATCC 27853, 24 h, read-out: DIZ
Bacillus subtilis [10] = assay: Antibacterial activity against Bacillus subtilis ATCC 11774 assessed as initial concentration required for appearance of zone of inhibition after 24 hr; assay type: functional
Candida albicans [11] = assay: Antifungal activity against Candida albicans ATCC 66027 assessed as initial concentration required for appearance of zone of inhibition after 24 hr; assay type: functional
Staphylococcus aureus [12] = assay: Antibacterial activity against Staphylococcus aureus ATCC 25923 assessed as initial concentration required for appearance of zone of inhibition after 24 hr; assay type: functional
Pseudomonas aeruginosa [13] = assay: Antibacterial activity against Pseudomonas aeruginosa ATCC 27853 assessed as initial concentration required for appearance of zone of inhibition after 24 hr; assay type: functional
Escherichia coli [14] = assay: Antibacterial activity against Escherichia coli ATCC 25922 assessed as initial concentration required for appearance of zone of inhibition after 24 hr; assay type: functional
Candida albicans [15] = assay: Antifungal activity against Candida albicans ATCC 66027 assessed as growth inhibition after 24 hr by serial broth dilution method; assay type: functional; settings: ATCC 66027, 24 h
Bacillus subtilis [16] = assay: Antibacterial activity against Bacillus subtilis ATCC 11774 assessed as growth inhibition after 24 hr by serial broth dilution method; assay type: functional; settings: ATCC 11774, 24 h
Pseudomonas aeruginosa [17] = assay: Antibacterial activity against Pseudomonas aeruginosa ATCC 27853 assessed as growth inhibition after 24 hr by serial broth dilution method; assay type: functional; settings: ATCC 27853, 24 h
Staphylococcus aureus [18] = assay: Antibacterial activity against Staphylococcus aureus ATCC 25923 assessed as growth inhibition after 24 hr by serial broth dilution method; assay type: functional; settings: ATCC 25923, 24 h
Escherichia coli [19] = assay: Antibacterial activity against Escherichia coli ATCC 25922 assessed as growth inhibition after 24 hr by serial broth dilution method; assay type: functional; settings: ATCC 25922, 24 h
Escherichia coli [20] = assay: microbe, parasite or virus in culture; settings: ATCC 25922, 24 h, read-out: DIZ
Escherichia coli [21] = assay: microbe, parasite or virus in culture; settings: ATCC 25922, 24 h, read-out: DIZ; remark: listed apart in the source

Row | Structure (SMILES) | zone of inhibition at 300 µg/mL (Candida albicans [2]) [mm] | zone of inhibition at 300 µg/mL (Bacillus subtilis [3]) [mm] | zone of inhibition at 300 µg/mL (Pseudomonas aeruginosa [4]) [mm] | zone of inhibition at 300 µg/mL (Staphylococcus aureus [5]) [mm] | zone of inhibition at 100 µg/mL (Candida albicans [6]) [mm] | zone of inhibition at 100 µg/mL (Bacillus subtilis [7]) [mm] | zone of inhibition at 100 µg/mL (Pseudomonas aeruginosa [9]) [mm] | Activity (Bacillus subtilis [10]) [µg/mL] | Activity (Candida albicans [11]) [µg/mL] | Activity (Staphylococcus aureus [12]) [µg/mL] | Activity (Pseudomonas aeruginosa [13]) [µg/mL] | Activity (Escherichia coli [14]) [µg/mL] | MIC (Candida albicans [15]) [µg/mL] | MIC (Bacillus subtilis [16]) [µg/mL] | MIC (Pseudomonas aeruginosa [17]) [µg/mL] | MIC (Staphylococcus aureus [18]) [µg/mL] | MIC (Escherichia coli [19]) [µg/mL] | zone of inhibition at 300 µg/mL (Escherichia coli [20]) [mm] | zone of inhibition at 100 µg/mL (Escherichia coli [21]) [mm] | also measured
1 | Cc1ccccc1NC(=O)NCCn1c(-c2ccccc2)nc2ccc([N+](=O)[O-])cc2c1=O | 19 | 14 | 18 | 14 | 16 | 11 | 12 | 100 | 20 | 70 | 70 | 40 | 20 (≈ 45.1 µM) | 70 (≈ 158 µM) | 40 (≈ 90.2 µM) | 70 (≈ 158 µM) | 40 (≈ 90.2 µM) | 16 | 13 | zone of inhibition at 40 µg/mL (Escherichia coli [1]): 11 mm; zone of inhibition at 100 µg/mL (Staphylococcus aureus [8]): 12 mm
2 | O=C(NCCn1c(-c2ccccc2)nc2ccc([N+](=O)[O-])cc2c1=O)Nc1ccccc1 | 20 | 15 | 14 | 14 | 17 | 11 | – | 100 | 20 | 200 | 200 | 100 | 20 (≈ 46.6 µM) | 100 (≈ 233 µM) | 40 (≈ 93.1 µM) | 100 (≈ 233 µM) | 70 (≈ 163 µM) | 16 | 11 | –
3 | O=C(O)c1cn(C2CC2)c2cc(N3CCNCC3)c(F)cc2c1=O [CIPROFLOXACIN] | – | – | – | – | – | – | – | 5 | – | 10 | 10 | 20 | – | 5 (≈ 15.1 µM) | 10 (≈ 30.2 µM) | 5 (≈ 15.1 µM) | 15 (≈ 45.3 µM) | – | – | –
4 | Cc1ccc(NC(=O)NCCn2c(-c3ccccc3)nc3ccc([N+](=O)[O-])cc3c2=O)cc1 | 17 | 15 | 17 | 14 | 14 | 12 | 12 | 70 | 20 | 70 | 70 | 40 | 20 (≈ 45.1 µM) | 70 (≈ 158 µM) | 70 (≈ 158 µM) | 70 (≈ 158 µM) | 40 (≈ 90.2 µM) | 17 | 14 | zone of inhibition at 40 µg/mL (Escherichia coli [1]): 11 mm; zone of inhibition at 100 µg/mL (Staphylococcus aureus [8]): 12 mm
5 | O=C(NCCn1c(-c2ccccc2)nc2ccc([N+](=O)[O-])cc2c1=O)Nc1ccc(C(F)(F)F)cc1 | 20 | 14 | 18 | 13 | 15 | 12 | 12 | 70 | 40 | 100 | 70 | 100 | 40 (≈ 80.4 µM) | 70 (≈ 141 µM) | 40 (≈ 80.4 µM) | 70 (≈ 141 µM) | 70 (≈ 141 µM) | 15 | 11 | zone of inhibition at 100 µg/mL (Staphylococcus aureus [8]): 11 mm
6 | O=C(NCCn1c(-c2ccccc2)nc2ccc([N+](=O)[O-])cc2c1=O)Nc1cc(C(F)(F)F)ccc1Cl | 20 | 14 | 19 | 12 | 14 | 11 | 12 | 100 | 40 | 300 | 70 | 70 | 20 (≈ 37.6 µM) | 100 (≈ 188 µM) | 70 (≈ 132 µM) | 200 (≈ 376 µM) | 70 (≈ 132 µM) | 18 | 11 | –
7 | OC(Cn1cncn1)(Cn1cncn1)c1ccc(F)cc1F [FLUCONAZOLE] | – | – | – | – | – | – | – | – | 10 | – | – | – | 5 (≈ 16.3 µM) | – | – | – | – | – | – | –
8 | O=C(NCCn1c(-c2ccccc2)nc2ccc([N+](=O)[O-])cc2c1=O)Nc1cc(C(F)(F)F)cc(C(F)(F)F)c1 | 24 | 19 | 19 | 12 | 17 | 14 | 14 | 70 | 20 | 200 | 40 | 100 | 20 (≈ 35.4 µM) | 40 (≈ 70.7 µM) | 40 (≈ 70.7 µM) | 200 (≈ 354 µM) | 100 (≈ 177 µM) | 14 | 11 | –
9 | O=C(NCCn1c(-c2ccccc2)nc2ccc([N+](=O)[O-])cc2c1=O)NC1CCCCC1 | 21 | 13 | 17 | 12 | 13 | – | 12 | 200 | 20 | 200 | 70 | 70 | 20 (≈ 45.9 µM) | 100 (≈ 230 µM) | 70 (≈ 161 µM) | 200 (≈ 459 µM) | 70 (≈ 161 µM) | 18 | 13 | –
10 | O=C(NCCn1c(-c2ccccc2)nc2ccc([N+](=O)[O-])cc2c1=O)Nc1ccc(Cl)cc1 | 21 | 16 | 16 | 12 | 15 | 12 | 11 | 70 | 40 | 200 | 100 | 70 | 40 (≈ 86.2 µM) | 70 (≈ 151 µM) | 40 (≈ 86.2 µM) | 200 (≈ 431 µM) | 40 (≈ 86.2 µM) | 14 | 12 | –
11 | CSc1ccc(NC(=O)NCCn2c(-c3ccccc3)nc3ccc([N+](=O)[O-])cc3c2=O)cc1 | 20 | 16 | 19 | 12 | 15 | 12 | 12 | 70 | 20 | 200 | 70 | 40 | 20 (≈ 42.1 µM) | 70 (≈ 147 µM) | 70 (≈ 147 µM) | 200 (≈ 421 µM) | 40 (≈ 84.1 µM) | 18 | 14 | zone of inhibition at 40 µg/mL (Escherichia coli [1]): 11 mm
